# Data reported in ChEMBL document CHEMBL4823282, “Novel Broad-Spectrum Antimicrobial Peptide Derived from Anoplin and Its Activity on Bacterial Pneumonia in Mice” (J Med Chem, 2021).
# Activity calls are given as the source filed them. The rule behind the calls is not given here. Where a SMILES comes first, the peptide text is derived from it.
# Tests used:
# Pseudomonas aeruginosa [1] = assay: Antibacterial activity against Pseudomonas aeruginosa ATCC 27853 incubated for 18 hrs in presence of EDTA by CLSI based broth dilution method; type: functional
# Klebsiella pneumoniae [2] = assay: Antibacterial activity against Klebsiella pneumoniae ATCC 700603 incubated for 18 hrs by CLSI based broth dilution method; type: functional
# Pseudomonas aeruginosa [3] = assay: Antibacterial activity against Pseudomonas aeruginosa ATCC 27853 assessed as increase in MIC at sub-MIC level after 15 passages by broth microdilution assay; type: functional
# Enterococcus faecalis = assay: Antibacterial activity against Enterococcus faecalis ATCC 29212 incubated for 18 hrs by CLSI based broth dilution method; type: functional
# [4] = test system: Staphylococcus epidermidis; assay: Antibacterial activity against Staphylococcus epidermidis ATCC 12228 incubated for 18 hrs by CLSI based broth dilution method; type: functional
# Pseudomonas aeruginosa [5] = assay: Antibacterial activity against Pseudomonas aeruginosa ATCC 27853 incubated for 18 hrs by CLSI based broth dilution method; type: functional
# Escherichia coli [6] = assay: Antibacterial activity against Escherichia coli ATCC 25922 incubated for 18 hrs by CLSI based broth dilution method; type: functional
# Acinetobacter baumannii = assay: Antibacterial activity against Acinetobacter baumannii ATCC 19606 incubated for 18 hrs by CLSI based broth dilution method; type: functional; conditions: ATCC 19606 = CIP 70.34 = JCM 6841
# Pseudomonas aeruginosa [7] = assay: Antibacterial activity against rifampin-resistant Pseudomonas aeruginosa ATCC 27853 incubated for 18 hrs in presence of EDTA by CLSI based broth dilution method; type: functional
# Pseudomonas aeruginosa [8] = assay: Antibacterial activity against rifampin-resistant Pseudomonas aeruginosa ATCC 27853 incubated for 18 hrs by CLSI based broth dilution method; type: functional
# Staphylococcus aureus [9] = assay: Antibacterial activity against Staphylococcus aureus ATCC 25923 incubated for 18 hrs by CLSI based broth dilution method; type: functional
# Pseudomonas aeruginosa [10] = assay: Antibacterial activity against gentamicin-resistant Pseudomonas aeruginosa ATCC 27853 incubated for 18 hrs by CLSI based broth dilution method; type: functional
# Bacillus subtilis = assay: Antibacterial activity against Bacillus subtilis ATCC 23857 incubated for 18 hrs by CLSI based broth dilution method; type: functional
# Pseudomonas aeruginosa [11] = assay: Antibacterial activity against Pseudomonas aeruginosa ATCC 27853 at 0.5 to 4 times MIC incubated for 24 hrs by crystal violet staining based assay; type: functional, organism-based
# Klebsiella pneumoniae [12] = assay: Antibacterial activity against Klebsiella pneumoniae ATCC 700603 incubated with 0.2 to 0.02 ug/ml trypsin for 6 hrs followed by bacterial addition and measured after 18 hrs by CLSI based broth dilution method; type: functional, organism-based; conditions: dose 0.2-0.02 µg/ml, time 23.0 hrs
# [13] = Selectivity ratio of MHC10 for BALB/C mouse erythrocytes to MIC for gram positive bacteria; type: toxicity
# Klebsiella pneumoniae [14] = assay: Antibacterial activity against Klebsiella pneumoniae ATCC 700603 incubated with 0.2 to 0.02 ug/ml chymotrypsin for 6 hrs followed by bacterial addition and measured after 18 hrs by CLSI based broth dilution method; type: functional, organism-based; conditions: dose 0.2-0.02 µg/ml, time 23.0 hrs
# Cell membrane [15] = assay: Induction of inner membrane permeabilization in Klebsiella pneumoniae ATCC 700603 at 0.5 to 4MIC using ONPG as substrate by spectroscopic method; type: subcellular; conditions: Klebsiella pneumoniae 700603, 0.5 to 4M
# Pseudomonas aeruginosa [16] = assay: Synergistic antibacterial activity against Pseudomonas aeruginosa ATCC 27853 at 2 times MIC incubated for 18 to 24 hrs in presence of 2 times MIC of polymyxin B by broth microdilution assay based checkerboard assay; type: functional; conditions: time 18-24 hrs
# Bacteria [17] = assay: Antibacterial activity against Gram-negative bacteria incubated for 18 hrs by CLSI based broth dilution method; type: functional
# [18] = Selectivity ratio of MHC10 for BALB/C mouse erythrocytes to MIC for gram-negative bacteria; type: toxicity
# [19] = Stability in BALB/C mouse serum measured up to 1440 mins by HPLC analysis; type: ADME, cell-free
# Staphylococcus aureus [20] = assay: Disruption of membrane integrity in Staphylococcus aureus ATCC 25923 assessed as membrane blebbing at 1 times MIC measured within 0.5 hrs by scanning electron microscopy; type: functional, organism-based
# Staphylococcus aureus [21] = assay: Antibacterial activity against Staphylococcus aureus ATCC 25923 incubated with 0.2 to 0.02 ug/ml trypsin for 6 hrs followed by bacterial addition and measured after 18 hrs by CLSI based broth dilution method; type: functional, organism-based; conditions: dose 0.2-0.02 µg/ml, time 23.0 hrs
# Escherichia coli [22] = assay: Antibiofilm activity against Escherichia coli ATCC 25922 at 4 times MIC incubated for 24 hrs by crystal violet staining based assay; type: functional, organism-based
# Staphylococcus aureus [23] = assay: Antibacterial activity against Staphylococcus aureus ATCC 25923 incubated with 0.2 to 0.02 ug/ml chymotrypsin for 6 hrs followed by bacterial addition and measured after 18 hrs by CLSI based broth dilution method; type: functional, organism-based; conditions: dose 0.2-0.02 µg/ml
# Fungi = assay: Antibacterial activity against fungi incubated for 18 hrs by CLSI based broth dilution method; type: functional
# [24] = Selectivity ratio of MHC10 for BALB/C mouse erythrocytes to MIC for bacteria; type: toxicity
# Staphylococcus aureus [25] = assay: Disruption of bacterial cell membrane in Staphylococcus aureus ATCC 25923 assessed as increase in PI uptake incubated for 30 to 120 mins by FACS flow cytometry; type: functional, organism-based; conditions: time 30-120 min
# Erythrocyte = assay: Hemolytic activity in BALB/C mouse erythrocytes incubated for 1 hr by absorbance method; type: ADME, cell-based
# Staphylococcus aureus [26] = assay: Antibacterial activity against Staphylococcus aureus ATCC 25923 at 0.5 to 1 times MIC incubated for 24 hrs by crystal violet staining based assay; type: functional, organism-based
# Bacteria [27] = assay: Antibacterial activity against Gram-positive bacteria incubated for 18 hrs by CLSI based broth dilution method; type: functional
# Bacteria [28] = assay: Antibacterial activity against bacteria incubated for 18 hrs by CLSI based broth dilution method; type: functional
# [29] = Selectivity ratio of MHC10 for BALB/C mouse erythrocytes to MIC for fungi; type: toxicity
# Staphylococcus aureus [30] = assay: Bactericidal activity against Staphylococcus aureus ATCC 25923 at 2MIC by time-kill assay; type: functional, organism-based; conditions: time 24.0 hrs, TDE = time-dependent effect
# [31] = Cytotoxicity against human glomerular mesangial cells incubated for 12 hrs by MTT assay; type: cell-based; conditions: Glomerular mesangial cell
# Klebsiella pneumoniae [32] = assay: Bactericidal activity against Klebsiella pneumoniae 700603 at 2MIC by time-kill assay relative to control; type: functional; conditions: 2M, TDE = time-dependent effect
# [33] = Stability in BALB/C mouse serum assessed as compound degradation time measured up to 1440 mins by HPLC analysis; type: ADME, cell-free; conditions: 24 h
# Cell membrane [34] = assay: Disruption of membrane integrity in Staphylococcus aureus ATCC 25923 assessed as membrane shrinking at 1 times MIC measured within 0.5 hrs by scanning electron microscopy; type: subcellular
# Cell membrane [35] = assay: Disruption of membrane integrity in Staphylococcus aureus ATCC 25923 assessed as bacterial death at 1 times MIC measured within 0.5 hrs by scanning electron microscopy; type: subcellular
# Klebsiella pneumoniae [36] = assay: Antibiofilm activity against Klebsiella pneumoniae ATCC 700603 at 2 to 4 times MIC incubated for 24 hrs by crystal violet staining based assay; type: functional, organism-based
smiles,measurement,setting,value
CO[C@H]1/C=C/O[C@@]2(C)Oc3c(C)c(O)c4c(O)c(c(/C=N/N5CCN(C)CC5)c(O)c4c3C2=O)NC(=O)/C(C)=C\C=C\[C@H](C)[C@H](O)[C@@H](C)[C@@H](O)[C@@H](C)[C@H](OC(C)=O)[C@@H]1C [RIFAMPIN],MIC,Pseudomonas aeruginosa [1],2 µM
same,MIC,Klebsiella pneumoniae [2],32 µM
same,fold change (FC),Pseudomonas aeruginosa [3],128
same,MIC,Enterococcus faecalis,< 1 µM
same,MIC,[4],< 1 µM
same,MIC,Pseudomonas aeruginosa [5],4 µM
same,MIC,Escherichia coli [6],4 µM
same,MIC,Acinetobacter baumannii,< 1 µM
same,MIC,Pseudomonas aeruginosa [7],2050 µM
same,MIC,Pseudomonas aeruginosa [8],2050 µM
same,MIC,Staphylococcus aureus [9],< 1 µM
same,MIC,Pseudomonas aeruginosa [10],32 µM
same,MIC,Bacillus subtilis,< 1 µM
CC[C@H](C)[C@H](NC(=O)[C@H](CCCNC(=N)N)NC(=O)[C@H](CCCCN)NC(=O)[C@H](CC(C)C)NC(=O)[C@H](CC(C)C)NC(=O)CN)C(=O)N[C@@H](CCCCN)C(=O)N[C@H](C(=O)N[C@@H](CC(C)C)C(=O)N[C@@H](CC(C)C)C(N)=O)[C@@H](C)O [ANOPLIN] (H-GLLKRIKTLL-NH2),Activity,Pseudomonas aeruginosa [11],inactive
same,Activity,Klebsiella pneumoniae [12],Active
same,selectivity ratio at 18 h,[13],8
same,MIC,Klebsiella pneumoniae [2],128 µM
same,Activity,Klebsiella pneumoniae [14],Active
same,Activity,Cell membrane [15],inactive
same,FIC,Pseudomonas aeruginosa [16],0.5625
same,MIC,Bacteria [17],90.5 µM
same,selectivity ratio,[18],5.66
same,MIC,Enterococcus faecalis,≥ 512 µM
same,MIC,[4],16 µM
same,half-life,[19],2.24 h
same,Activity,Staphylococcus aureus [20],inactive
same,MIC,Pseudomonas aeruginosa [5],8 µM
same,MIC,Escherichia coli [6],128 µM
same,MIC,Acinetobacter baumannii,≥ 512 µM
same,Activity,Staphylococcus aureus [21],Active
same,Activity,Escherichia coli [22],Active
same,Activity,Staphylococcus aureus [23],inactive
same,MIC,Fungi,76.1 µM
same,selectivity ratio,[24],6.73
same,Activity,Staphylococcus aureus [25],Active
same,MHC10,Erythrocyte,>= 512 uM
same,Activity,Staphylococcus aureus [26],Active
same,MIC,Bacteria [27],64 µM
same,MIC,Bacteria [28],76.1 µM
same,selectivity ratio,[29],6.73
same,Activity,Staphylococcus aureus [30],Tde
same,IC50,[31],≥ 512 µM
same,Activity,Klebsiella pneumoniae [32],Tde
same,MIC,Staphylococcus aureus [9],256 µM
same,MIC,Bacillus subtilis,8 µM
same,Time,[33],12.14 min
same,Activity,Cell membrane [34],inactive
same,Activity,Cell membrane [35],inactive
same,Activity,Klebsiella pneumoniae [36],Active
